Measured values as given in patent publication US11168052B2, “Carbamate derivative compounds, processes for preparing them and their uses” (BIO-PHARM SOLUTIONS CO., LTD., priority 2016, dated 2021).

Legend:
[1] = system: CFA-induced pain model in rats; test: Antiallodynic activity on Complete Freund's Adjuvant (CFA)-induced inflammatory pain model; type: in vivo, Sprague-Dawley rats; settings: 50 mg/kg intraperitoneally, von Frey threshold relative to sham, 0.5 hr after administration; for response vs control in vivo at 50 mg/kg: Rattus norvegicus, ip, read-out: Efficacy of 50 mg/kg(%)
Description: Male, Sprague-Dawley rats (210-250 g, Nara Bio, Korea) were habituated for 1 week before surgery and allowed free access to food and water throughout the experimentation. Room temperature and humidity were maintained at 24±2 and 50±10%, respectively.
CFA-induced inflammatory pain was induced by the procedure of Nagakura et al. (2003) and Gregory P. et al. (2010) with minor modifications. CFA (sigma, USA) was injected in the right plantar with a 100 ul volume under gaseous anesthesia with isoflurane. Sham controls were injected with 100 ul of saline, and preparation of the vehicle controls were identical to the group treated with compound, except for administration of vehicles without indentical to the vihecle control group.
Tactile sensitivity (Mechanical allodynia) was evaluated using von Frey monofilaments before and after treatment, and animals were include in the study only if the withdrawal threshold value was less than 4 g. One week after CFA injection, CFA-infused animals, sham-operated animal, and vehicle-operated animals were tested for tactile sensitivity with von Frey monofilaments, with 3 trials for each animal. All Animals were placed in a stainless steel mashe chamber and habituated for 30 min in the test cage. The tactile sensitivity for ipsilateral hind paw was measured using the up-and-down method (Dixon, 1980) with seven von Frey monofilaments (0.4, 1, 2, 4, 6, 8, and 15 g) to 3 trials. The tactile sensitivity test was followed by Dixon's method (Dixon, 1980). The 50% paw withdrawal threshold for each paw was calculated using the following formula: [Xth]log=[vFr]log+ky where [vFr] is the force of the last von Frey used, k=0.2249 which is the average interval (in log units) between the von Frey monofilaments, and y is a value that depends upon the pattern of withdrawal responses (Dixon, 1980).
Antiallodynic effect of compounds was evaluated at the dose of 50 mg/kg (n=4-6), intraperitoneally administrated in a volume of 5 ul/g bw in a vehicle of 30% (v/v) PEG or 20% (v/v) Tween 80. The test was performed peak time of efficacy (0.5 hr) after compound administration.
The relative values compared to the sham (% control) were calculated and shown in Table 5, which show an antiallodynic effect of Compound 1 on CFA-induced pain model in rats.

[2] = system: MES (electroshock) seizure in mice; test: Anti-epilepsy activity, MES test in mouse; type: in vivo, ICR mice
Description: (§1) In the MES test (Ref., G. Villetti et al. Neuropharmacology 40(2001) 866-878), an electrical stimulus (mice: 50 mA, 60 Hz, 0.2 sec, and rats: 150 mA, 60 Hz, 0.2 sec in the test animal) supplied by an 11A Shocker (IITC Life Science Company) was delivered through corneal electrodes. All mice or rats assigned to any electroshock at peak time were treated with each test compound sample which was dissolved in 20% tween 80 prepared by saline solvent applied orally before the test. […] Three doses of the test sample were administered orally to 9-18 animals (3-6 mice per dose) for evaluating the respective doses at which 50% of the animals were protected from seizure (ED50). The ED50 value (median effective dose) was calculated by Litchfield and Wicoxon log-probit method which is a dose-response relationship. Experimental animals, male ICR mice and male SD rats, were purchased from OrientBio, Samtako, or Nara Biotech, Korea, and housed in cages (4-5 mice or 3 rats per cage) for 4-5 days. The range of mice body weight was between 19 and 25 grams and range of rats body weight was between 100 and 130 grams.

[3] = system: MES (electroshock) seizure in rats; test: Anti-epilepsy activity, MES test in rats; type: in vivo, SD rats; settings: Rattus norvegicus, po
Description: as §1

[4] = system: Lithium-pilocarpine induced seizure in rats; test: Lithium-pilocarpine induced epilepsy test (LI-PILO), prevention test; type: in vivo, Sprague-Dawley rats; settings: i.p., dose 100 mg/kg
Description: Male Sprague-Dawley rats (purchased from Orient Bio Inc. Korea) of body weight 175 grams were used for these studies and 3 rats per cage were housed for 4-5 days. On the day prior to SE, rats received 127 mg/kg lithium chloride (Sigma, St. Louis, Mo., U.S.A.) intraperitoneally (i.p.). Approximately 18-20 h following this treatment, rats were given an i.p. injection of the concentration capable of inducing 97% intermittent convulsions pilocarpine(Sigma, 30-43 mg/kg). An i.p. injection of 2 mg/kg methyl-scopolamine (Sigma) was administered 30 min prior to pilocarpine to block the effects of the muscarinic agonist on peripheral cholinergic receptors. Test drugs were dissolved in 20% tween80 (Sigma).
The drugs were administered intraperitoneally (i.p.) in a volume of 2 μl/g body weight. Pharmacological effects of all of the test materials were evaluated to compare test groups (n=6) with a control group (n=6). Control group was administered vehicle only. The efficacy was measured 0.5, 1, 2, or 4 hours after the administration of the test material. The time point that the most animals were protected was defined as peak time and the ED50 was determined at peak time. The animals were then transferred to observation cages and observed continuously for 90 min Seizure was elicited in approximately 95% of the control group. Protection was defined as complete absence of seizure grade 3-5 (Racine scale; Racine, 1972) over the 90-min observation period. The effective dose of the compound necessary to protect 50% of the animals against seizures compared to controls (i.e., ED50) was determined by a curve fitting program (Excel 2007, Microsoft).

[5] = po, read-out: MES test (po) efficacy %

Compound | response vs control in vivo at 50 mg/kg [1] | responders at 100 mg/kg [2, 5] | further results
NC(=O)O[C@H]1Cc2cccc(Cl)c2[C@H]1OC(N)=O [Example 78, (1R, 2S)-7-chloro-2,3-dihydro-1H-inden-1,2-diyl dicarbamate] | 62.3% | 33.3% | –
NC(=O)O[C@H]1c2ccc(Cl)cc2CC[C@H]1O [Example 23, (1S, 2R)-6-chloro-2-hydroxy-1,2,3,4-tetrahydronaphthalen-1-yl carbamate] | – | 33.3% | –
NC(=O)O[C@H]1c2c(F)cccc2C[C@H]1O [Example 69, (1S, 2R)-7-fluoro-2-hydroxy-2,3-dihydro-1H-inden-1-yl carbamate] | – | 33.3% | –
NC(=O)O[C@@H]1CCc2cc(Cl)ccc2[C@@H]1O [Example 8, (1S, 2R)-6-chloro-1-hydroxy-1,2,3,4-tetrahydronaphthalen-2-yl carbamate] | – | 100% | –
NC(=O)O[C@@H]1CCc2ccccc2[C@@H]1O [Example 14, (1S, 2R)-1-hydroxy-1,2,3,4-tetrahydronaphthalen-2-yl carbamate] | – | 100% | –
NC(=O)O[C@H]1c2cc(Cl)ccc2CC[C@H]1O [Example 21, (1S, 2R)-7-chloro-2-hydroxy-1,2,3,4-tetrahydronaphthalen-1-yl carbamate] | 28.9% | 33.3% | –
NC(=O)O[C@H]1c2ccccc2CC[C@H]1O [Example 16, (1S, 2R)-2-hydroxy-1,2,3,4-tetrahydronaphthalen-1-yl carbamate] | – | 50% | –
COCO[C@H]1Cc2cccc(Cl)c2[C@H]1OC(N)=O [Example 76, (1R, 2S)-7-chloro-2-(methoxymethoxy)-2,3-dihydro-1H-inden-1-yl carbamate] | 59.2% | 100% | –
NC(=O)O[C@H]1c2cccc(Cl)c2C[C@H]1O [Example 62, (1S, 2R)-4-chloro-2-hydroxy-2,3-dihydro-1H-inden-1-yl carbamate] | – | – | ED50 ([2]; po): 53.1 mg/kg; ED50 [3]: 24.5 mg/kg
NC(=O)O[C@@H]1CCc2cccc(Cl)c2[C@@H]1OC(N)=O [Example 29, (1S, 2R)-8-chloro-1,2,3,4-tetrahydronaphthalen-1,2-diyldicarbamate] | 30.3% | 66.6% | –
COCO[C@H]1c2c(Cl)cccc2CC[C@H]1OC(N)=O [Example 40, (1S, 2R)-8-chloro-1-(methoxymethoxy)-1,2,3,4-tetrahydronaphthalen-2-yl carbamate] | – | 100% | Lithium pilocarpine model (pre) efficacy % [4]: 66.6%
COCO[C@@H]1c2c(Cl)cccc2C[C@@H]1OC(N)=O [Example 72, (1R, 2S)-7-chloro-1-(methoxymethoxy)-2,3-dihydro-1H-inden-2-yl carbamate] | 21.4% | – | –
NC(=O)O[C@H]1CCc2cccc(I)c2[C@H]1O [Example 13, (1R, 2S)-1-hydroxy-8-iodo-1,2,3,4-tetrahydronaphthalen-2-yl carbamate] | 43.1% | 33.3% | –
NC(=O)O[C@@H]1CCc2ccccc2[C@@H]1OC(N)=O [Example 38, (1S, 2R)-1,2,3,4-tetrahydronaphthalen-1,2-diyl dicarbamate] | – | 25% | –
NC(=O)O[C@@H]1CCc2cccc(I)c2[C@@H]1OC(N)=O [Example 36, (1S, 2R)-8-iodo-1,2,3,4-tetrahydronaphthalen-1,2-diyl dicarbamate] | 72.2% | – | responders at 300 mg/kg [2, 5]: 33.3%
NC(=O)O[C@H]1CCc2ccc(Cl)cc2[C@H]1O [Example 7] | 28.6% | – | responders at 150 mg/kg ([2]; po, dose 150 mg/kg, read-out: MES test (po) efficacy %): 100%
NC(=O)O[C@@H]1c2cc(Cl)ccc2CC[C@@H]1O [Example 22, (1R, 2S)-7-chloro-2-hydroxy-1,2,3,4-tetrahydronaphthalen-1-yl carbamate] | 35.7% | 100% | –
NC(=O)O[C@H]1CCc2cccc(I)c2[C@H]1OC(N)=O [Example 37, (1R, 2S)-8-iodo-1,2,3,4-tetrahydronaphthalen-1,2-diyl dicarbamate] | – | – | responders at 300 mg/kg [2, 5]: 33.3%
NC(=O)O[C@H]1Cc2cccc(F)c2[C@H]1O [Example 56, (1R, 2S)-7-fluoro-1-hydroxy-2,3-dihydro-1H-inden-2-yl carbamate] | 43.2% | – | ED50 ([2]; po): 45.6 mg/kg
NC(=O)O[C@@H]1c2c(I)cccc2CC[C@@H]1O [Example 28, (1R, 2S)-2-hydroxy-8-iodo-1,2,3,4-tetrahydronaphthalen-1-yl carbamate] | 42.1% | 100% | –
NC(=O)O[C@@H]1CCc2cccc(I)c2[C@@H]1O [Example 12, (1S, 2R)-1-hydroxy-8-iodo-1,2,3,4-tetrahydronaphthalen-2-yl carbamate] | 38.5% | 100% | –
NC(=O)O[C@@H]1CCc2cccc(Cl)c2[C@H]1O [Example 4, (1R, 2R)-8-chloro-1-hydroxy-1,2,3,4-tetrahydronaphthalen-2-yl carbamate] | – | – | ED50 ([2]; po): 80.6 mg/kg
NC(=O)O[C@H]1CCc2cccc(Cl)c2[C@H]1OC(N)=O [Example 30, (1R, 2S)-8-chloro-1,2,3,4-tetrahydronaphthalen-1,2-diyl dicarbamate] | 28.4% | – | responders at 400 mg/kg ([2]; po, dose 400 mg/kg, read-out: MES test (po) efficacy %): 33.3%
NC(=O)O[C@H]1CCc2cc(Cl)ccc2[C@H]1O [Example 9, (1R, 2S)-6-chloro-1-hydroxy-1,2,3,4-tetrahydronaphthalen-2-yl carbamate] | 27.5% | – | –
NC(=O)O[C@H]1c2c(I)cccc2CC[C@H]1O [Example 27, (1S, 2R)-2-hydroxy-8-iodo-1,2,3,4-tetrahydronaphthalen-1-yl carbamate] | 37.8% | – | responders at 200 mg/kg ([2]; po, dose 200 mg/kg, read-out: MES test (po) efficacy %): 100%
8-chloro-2-hydroxy-1,2,3,4-tetrahydronaphthalen-1-yl carbamate (mixture of SR & RS) [Example 20] | – | – | Efficacy of 50 mg/kg(%) [1]: 40.2%; MES test (po) ED50 [2]: 31.4 mg/kg
NC(=O)O[C@@H]1Cc2c(Cl)cccc2[C@@H]1O [Example 68, (1S, 2R)-4-chloro-1-hydroxy-2,3-dihydro-1H-inden-2-yl carbamate] | – | – | ED50 ([2]; po): 61.2 mg/kg; ED50 [3]: 14.4 mg/kg
NC(=O)O[C@@H]1CCc2ccc(Cl)cc2[C@@H]1O [Example 6, (1S, 2R)-7-chloro-1-hydroxy-1,2,3,4-tetrahydronaphthalen-2-yl carbamate] | 26.8% | 33.3% | –
